Format in all cases: in vivo
One assay concerns Phytophthora infestans. Kind of assay: whole plant or invertebrate. Conditions: Phytophthora infestans, in Solanum lycopersicum, 96 h, read-out: control value (Test 1).
The test system of assay [1] is Pseudoperonospora cubensis. The assay can be described thus: Test 2: control effect against cucumber downy mildew. The conditions noted are these: Pseudoperonospora cubensis, 120 h, control value vs untreated section. Put shortly: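 Protective test: zoospores (1.0×10^4 units/ml) misted one day after applying a 4 ppm suspension (wettable powder diluted in 1/5000 Tween20) to 2-leaf cucumber, Sagami hanjiro. After 16 hr at 22° C humid incubation, leaf lesion area read at day 5, expressed as control value versus untreated leaves.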

In another assay the test system is Plasmopara viticola. The assay can be described thus: Test 3: control effect against grape downy mildew. The conditions noted are these: Plasmopara viticola, 120 h, control value vs untreated section. Put shortly: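 Leaf lesion area, scored 5 days after inoculation and compared with untreated plants, gives the control value. Inoculation used P. viticola zoospores (1.0×10^4 units/ml) with a 16 hr moist incubation at 22° C. It followed by one day a spray of 4 ppm compound (wettable powder in Tween20) onto Neomuscat seedlings.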

In a further assay the test system is Pythium graminicola. Kind of assay: Test 4: control effect against rice damping-off by the Pythium fungus (soil lavage). Conditions: 1,000 ppm, 2.5 ml test suspension drenched on contaminated soil, rice (koshihikari). The method, then: A 10% wettable powder created according to the Pharmaceutical Formulation Example 1 was diluted with a Tween20 solution prepared to a concentration of 1/5000, then the compound of formula [1] was prepared to a concentration of 4 ppm. Further, the compound of formula [1] in Test 4 was adjusted to a concentration of 1,000 ppm.
<Test 4 Test of Control Effect Against Rice Damping-Off by the Pythium Fungus (Soil Lavage)>
Distilled water was added to the flora of Pythium graminicola cultured in bentoglass seed culture and stirred with a mixer, and adjusted the contaminated soil to 5 g of bacteria against 1 kg of soil.
In a cell tray having 31×31 mm^2 per cell, 20 ml of the contaminated soil was filled in each cell, and 3 seeds of rice chaff that has been forced to sprout (Species: koshihikari) were seeded, and 5 ml of soil was added for covering, then 2.5 ml of test suspension was drenched, and the seeds were incubated in a moist chamber adjusted to 28° C. for 72 hr to induce sprouting. Then, in a low temperature room of 5° C., the onset of disease was induced for 2 days, then the disease was nurtured for 14 days in a room of 25° C.
The soil was washed, and the apoptosis strain, growth restrained strain, and a healthy strain were measured and the onset rate was calculated by the following formula. Onset rate=[Σ(onset strain number by level×onset index)/(investigated strain×3)]×100 [Onset Index]
1: Growth restrained strain
Also, the following formula was used to compute the control value from the obtained onset index. control value={1−onset area rate at the section applied the test agent/onset area rate of untreated section}×100 Computational formula of the control value: […]

In the case of `Cc1cc(C(F)(F)F)nn1CC(=O)N1CCC(c2nc(C3OCc4cccc(S(C)(=O)=O)c4CO3)cs2)CC1` (stereo not drawn) [Compound 1-47, 4-[4-(6-methylsulfonyl-1,5-dihydro-3H-2,4-benzodioxepin-3-yl)-2-thiazolyl]-1-[2-[5-methyl-3-(trifluoromethyl)-1H-pyrazole-1-yl]acetyl]piperidine], the pest or weed control at 4 µg/mL (in the assay with Phytophthora infestans; in assay [1]; with Plasmopara viticola) was 100% each time. The same molecule gave a pest or weed control at 1000 ppm with Pythium graminicola not below 90%.
Take `O=C(Cn1nc(C(F)F)cc1C(F)F)N1CCC(c2nc(C3OCc4ccc([N+](=O)[O-])cc4CO3)cs2)CC1` (stereo not drawn) [Compound 1-49, 4-[4-(7-nitro-1,5-dihydro-3H-2,4-benzodioxepin-3-yl)-2-thiazolyl]-1-[2-[3,5-bis(difluoromethyl)-1H-pyrazole-1-yl]acetyl]piperidine]: the pest or weed control at 4 µg/mL (in the assay with Phytophthora infestans; in assay [1]; with Plasmopara viticola) was 100% each time. Further, the pest or weed control at 1000 ppm in the assay with Pythium graminicola was not below 90%.
Take `O=C(Cn1nc(C(F)(F)F)cc1C(F)(F)F)N1CCC(c2nc(C3OCc4c(F)ccc(F)c4CO3)cs2)CC1` [Compound 1-50, 4-[4-(6,9-difluoro-1,5-dihydro-3H-2,4-benzodioxepin-3-yl)-2-thiazolyl]-1-[2-[3,5-bis(trifluoromethyl)-1H-pyrazole-1-yl]acetyl]piperidine]: the pest or weed control at 4 µg/mL (with Phytophthora infestans; in assay [1]; in the assay with Plasmopara viticola) was 100% each time. The molecule also yielded a pest or weed control at 1000 ppm in the assay with Pythium graminicola not below 90%.
As to `O=C(Cn1nc(C(F)F)cc1C(F)F)N1CCC(c2nc(C3OCc4c(F)ccc(F)c4CO3)cs2)CC1` [Compound 1-51, 4-[4-(6,9-difluoro-1,5-dihydro-3H-2,4-benzodioxepin-3-yl)-2-thiazolyl]-1-[2-[3,5-bis(difluoromethyl)-1H-pyrazole-1-yl]acetyl]piperidine], the pest or weed control at 4 µg/mL (in the assay with Phytophthora infestans; in assay [1]; in the assay on Plasmopara viticola) was 100% each time. In the assay with Pythium graminicola, the pest or weed control at 1000 ppm was not below 90%.
With `COc1ccc(Br)c2c1COC(c1csc(C3CCN(C(=O)Cn4nc(C(F)F)cc4C(F)F)CC3)n1)OC2` (stereo not drawn) [Compound 1-57, 4-[4-(6-bromo-9-methoxy-1,5-dihydro-3H-2,4-benzodioxepin-3-yl)-2-thiazolyl]-1-[2-[3,5-bis(difluoromethyl)-1H-pyrazole-1-yl]acetyl]piperidine], the pest or weed control at 4 µg/mL (with Phytophthora infestans; in assay [1]; with Plasmopara viticola) was 100% each time. In the assay with Pythium graminicola, this molecule displayed a pest or weed control at 1000 ppm not below 90%.
With `CS(=O)(=O)Oc1ccc(F)c2c1COC(c1csc(C3CCN(C(=O)Cn4nc(C(F)F)cc4C(F)F)CC3)n1)OC2` (stereo not drawn) [Compound 1-62, 4-[4-(6-fluoro-9-methylsulfonyloxy-1,5-dihydro-3H-2,4-benzodioxepin-3-yl)-2-thiazolyl]-1-[2-[3,5-bis(difluoromethyl)-1H-pyrazole-1-yl]acetyl]piperidine], the pest or weed control at 4 µg/mL (with Phytophthora infestans; in assay [1]; with Plasmopara viticola) was 100% in each case. The same molecule returned a pest or weed control at 1000 ppm in the assay with Pythium graminicola not below 90%.
Turning to `Cc1cc(C(F)(F)F)nn1CC(=O)N1CCC(c2nc(C3OCc4cccc(CCl)c4CO3)cs2)CC1` (stereo not drawn) [Compound 1-69, 4-[4-[6-(chloromethyl)-1,5-dihydro-3H-2,4-benzodioxepin-3-yl]-2-thiazolyl]-1-[2-[5-methyl-3-(trifluoromethyl)-1H-pyrazole-1-yl]acetyl]piperidine], the pest or weed control at 4 µg/mL with Phytophthora infestans was 100%; in assay [1], 60%; in the assay with Plasmopara viticola it was 100%. The molecule also registered a pest or weed control at 1000 ppm with Pythium graminicola not below 90%.
Turning to `Cc1cc(C(F)(F)F)nn1CC(=O)N1CCC(c2nc(C3OCc4cccc(C=O)c4CO3)cs2)CC1` (stereo not drawn) [Compound 1-70, 4-[4-(6-formyl-1,5-dihydro-3H-2,4-benzodioxepin-3-yl)-2-thiazolyl]-1-[2-[5-methyl-3-(trifluoromethyl)-1H-pyrazole-1-yl]acetyl]piperidine], the pest or weed control at 4 µg/mL worked out at 100% with Phytophthora infestans, 60% in assay [1] and 100% with Plasmopara viticola. In addition, in the assay with Pythium graminicola, the pest or weed control at 1000 ppm was not below 90%.
With `Cc1cc(C(F)(F)F)nn1CC(=O)N1CCC(c2nc(C3OCc4cccc(CC#N)c4CO3)cs2)CC1` (stereo not drawn) [Compound 1-72, 4-[4-[6-(cyanomethyl)-1,5-dihydro-3H-2,4-benzodioxepin-3-yl]-2-thiazolyl]-1-[2-[5-methyl-3-(trifluoromethyl)-1H-pyrazole-1-yl]acetyl]piperidine], the pest or weed control at 4 µg/mL (in the assay with Phytophthora infestans; in assay [1]; with Plasmopara viticola) was 100% each time. Further, in the assay with Pythium graminicola, the pest or weed control at 1000 ppm was not below 90%.
For the molecule `CC(C)(C)c1ccc2c(c1)COC(c1csc(C3CCN(C(=O)Cn4nc(C(F)F)cc4C(F)F)CC3)n1)OC2` (stereo not drawn) [Compound 1-78, 4-[4-(7-tert-butyl-1,5-dihydro-3H-2,4-benzodioxepin-3-yl)-2-thiazolyl]-1-[2-[3,5-bis(difluoromethyl)-1H-pyrazole-1-yl]acetyl]piperidine], the pest or weed control at 4 µg/mL (with Phytophthora infestans; in assay [1]; with Plasmopara viticola) was 100% throughout. The pest or weed control at 1000 ppm in the assay with Pythium graminicola is not below 90%.
With `Cc1cc(C(F)(F)F)nn1CC(=O)N1CCC(c2nc(C3OCc4ccc(C(C)(C)C)cc4CO3)cs2)CC1` (stereo not drawn) [Compound 1-79, 4-[4-(7-tert-butyl-1,5-dihydro-3H-2,4-benzodioxepin-3-yl)-2-thiazolyl]-1-[2-[5-methyl-3-(trifluoromethyl)-1H-pyrazole-1-yl]acetyl]piperidine], the values for the pest or weed control at 4 µg/mL (in the assay on Phytophthora infestans; in assay [1]; in the assay with Plasmopara viticola) were 100%, 90% and 90%, respectively. Moreover, the pest or weed control at 1000 ppm in the assay with Pythium graminicola is not below 90%.
Regarding `O=C(Cn1nc(C(F)(F)F)cc1C(F)(F)F)N1CCC(c2nc(C3OCc4c(F)c(F)c(F)c(F)c4CO3)cs2)CC1` [Compound 1-84, 4-[4-(6,7,8,9-tetrafluoro-1,5-dihydro-3H-2,4-benzodioxepin-3-yl)-2-thiazolyl]-1-[2-[3,5-bis(trifluoromethyl)-1H-pyrazole-1-yl]acetyl]piperidine], the pest or weed control at 4 µg/mL (in the assay on Phytophthora infestans; in assay [1]; with Plasmopara viticola) was 100% throughout. In the assay with Pythium graminicola, this molecule came in with a pest or weed control at 1000 ppm not below 90%.
With `Cc1cc(C(F)(F)F)nn1CC(=O)N1CCC(c2nc(C3OCc4cccc(OS(=O)(=O)N(C)C)c4CO3)cs2)CC1` (stereo not drawn) [Compound 1-90, 4-[4-[6-(dimethylaminosulfonyloxy)-1,5-dihydro-3H-2,4-benzodioxepin-3-yl]-2-thiazolyl]-1-[2-[5-methyl-3-(trifluoromethyl)-1H-pyrazole-1-yl]acetyl]piperidine], the pest or weed control at 4 µg/mL (in the assay on Phytophthora infestans; in assay [1]; in the assay with Plasmopara viticola) was 100% in each case. The molecule further yielded a pest or weed control at 1000 ppm with Pythium graminicola not below 90%.
As for `O=C(Cn1nc(C(F)(F)F)cc1C(F)(F)F)N1CCC(c2nc(C3OCc4ccc(F)cc4CO3)cs2)CC1` (stereo not drawn) [Compound 1-91, 4-[4-(7-fluoro-1,5-dihydro-3H-2,4-benzodioxepin-3-yl)-2-thiazolyl]-1-[2-[3,5-bis(trifluoromethyl)-1H-pyrazole-1-yl]acetyl]piperidine], the pest or weed control at 4 µg/mL (with Phytophthora infestans; in assay [1]; in the assay with Plasmopara viticola) was 100% in each case. Also, the pest or weed control at 1000 ppm in the assay with Pythium graminicola was not below 90%.
`O=C(Cn1nc(C(F)(F)F)cc1C(F)(F)F)N1CCC(c2nc(C3OCc4ccc([N+](=O)[O-])cc4CO3)cs2)CC1` (stereo not drawn) [Compound 1-95, 4-[4-(7-nitro-1,5-dihydro-3H-2,4-benzodioxepin-3-yl)-2-thiazolyl]-1-[2-[3,5-bis(trifluoromethyl)-1H-pyrazole-1-yl]acetyl]piperidine]: the pest or weed control at 4 µg/mL (with Phytophthora infestans; in assay [1]; in the assay with Plasmopara viticola) was 100% throughout. The molecule also came in with a pest or weed control at 1000 ppm in the assay on Pythium graminicola not below 90%.

For the origin of these results see US10104891B2 (priority 2014, dated 2018).
